pIC50, pKi: −log10 of the molar value. Active and inactive are the calls of the source. The calls are words filed in the database; no cut-off is given here.
Experiments:
[1] = system: Mus musculus; experiment: Neurotoxicity in albino CF-1 mouse at 50 mg/kg after 2 hrs by rotarod test; type: toxicity, organism-based; conditions: in vivo
[2] = system: Mus musculus; experiment: Neurotoxicity in albino CF-1 mouse at 30 mg/kg, ip after 0.5 hrs by rotarod test; type: toxicity, organism-based; conditions: in vivo
[3] = system: Mus musculus; experiment: Anticonvulsant activity in albino CF-1 mouse assessed as protection against 44 mA current-induced seizure at 50 mg/kg, ip after 0.25 hrs by 6 Hz psychomotor test; type: functional, organism-based
[4] = system: Rattus norvegicus; experiment: Anticonvulsant activity in Sprague-Dawley rat assessed as protection against maximal electroshock-induced seizures at 30 mg/kg, ip after 0.5 hrs; type: functional, organism-based
[5] = system: Mus musculus; experiment: Anticonvulsant activity in ip dosed albino CF-1 mouse assessed as protection against subcutaneous pentylenetetrazole-induced seizures measured after 1 hr; type: functional; conditions: CF-1, 1 h
[6] = molecular target: Histamine H1 receptor (Cavia porcellus) (UniProt P31389); experiment: Agonist activity at histamine H1 receptor in guinea-pig ileum assessed as induction of contractions at 1 to 3 uM after 15 mins; type: functional
[7] = system: Rattus norvegicus; experiment: Anticonvulsant activity in po dosed Sprague-Dawley rat assessed as protection against maximal electroshock-induced seizures after 1 hr; type: functional
[8] = system: Mus musculus; experiment: Effect on spontaneous locomotor activity in ip dosed albino Swiss CD1 mouse assessed as inhibition of number of light beam crossings treated for 30 mins measured for next 30 mins in 10 min intervals; type: organism-based; conditions: in vivo, 0.5 h
[9] = system: HepG2; experiment: Cytotoxicity against human HepG2 cells assessed as reduction in cell viability after 72 hrs by MTS assay; type: cell-based; conditions: HepG2, 72 h
[10] = system: Mus musculus; experiment: Anticonvulsant activity in albino CF-1 mouse assessed as protection against 44 mA current-induced seizure at 50 mg/kg, ip after 4 hrs by 6 Hz psychomotor test; type: functional, organism-based
[11] = system: Rattus norvegicus; experiment: Anticonvulsant activity in Sprague-Dawley rat assessed as protection against maximal electroshock-induced seizures at 30 mg/kg, po after 0.25 hrs; type: functional, organism-based
[12] = system: Mus musculus; experiment: Anticonvulsant activity in albino CF-1 mouse assessed as protection against 32 mA current-induced seizure at 50 mg/kg, ip after 4 hrs by 6 Hz psychomotor test; type: functional, organism-based
[13] = molecular target: CYP3A4 (Homo sapiens, UniProt P08684); experiment: Inhibition of CYP3A4 (unknown origin) at 25 uM by CYP3A4 P450-Glo assay; type: ADME
[14] = system: IMR-32; experiment: Cytotoxicity against human IMR32 cells assessed as reduction in cell viability after 72 hrs by MTS assay; type: cell-based; conditions: IMR-32, 72 h
[15] = system: Mus musculus; experiment: Neurotoxicity in albino CF-1 mouse at 50 mg/kg, ip after 2 hrs by rotarod test; type: toxicity, organism-based; conditions: in vivo
[16] = system: Mus musculus; experiment: Analgesic activity in ip dosed albino Swiss CD1 mouse assessed reduction in formalin-induced inflammatory pain by measuring reduction in time spent in licking treated prior to formalin injection measured at 0 to 5 mins post formalin injection; type: functional
[17] = system: Mus musculus; experiment: Neurotoxicity in albino CF-1 mouse at 65 mg/kg after 4 hrs by rotarod test; type: toxicity, organism-based; conditions: in vivo
[18] = system: Mus musculus; experiment: Anticonvulsant activity in albino CF-1 mouse assessed as protection against maximal electroshock-induced seizures at 50 mg/kg, ip after 1 hr; type: functional, organism-based
[19] = system: Rattus norvegicus; experiment: In vivo antagonist activity at H3 receptor in RAMH-induced dipsogenic ip dosed Wistar (Krf:(WI) WU) rat model assessed as inhibition of RAMH-water intake administered 30 mins prior to RAMH induction; type: functional
[20] = system: Mus musculus; experiment: Neurotoxicity in albino CF-1 mouse at 30 mg/kg, ip after 2 hrs by rotarod test; type: toxicity, organism-based; conditions: in vivo
[21] = Neurotoxicity in po dosed Sprague-Dawley rat after 0.25 hrs by rotarod test; type: toxicity, organism-based; conditions: in vivo
[22] = system: Rattus norvegicus; experiment: Anticonvulsant activity in Sprague-Dawley rat assessed as protection against maximal electroshock-induced seizures at 30 mg/kg, ip after 2 hrs; type: functional, organism-based
[23] = system: Mus musculus; experiment: Neurotoxicity in albino CF-1 mouse at 30 mg/kg, ip after 1 hr by rotarod test; type: toxicity, organism-based; conditions: in vivo
[24] = molecular target: D(1A) dopamine receptor (Homo sapiens) (UniProt P21728); experiment: Displacement of [3H]-SCH23390 from human dopamine D1 receptor expressed in HEK293 cell membranes at 1 uM relative to fluphenazin
[25] = system: Rattus norvegicus; experiment: Anticonvulsant activity in Sprague-Dawley rat assessed as protection against maximal electroshock-induced seizures at 30 mg/kg, po after 2 hrs; type: functional, organism-based
[26] = system: Mus musculus; experiment: Neurotoxicity in albino CF-1 mouse at 50 mg/kg after 4 hrs by rotarod test; type: toxicity, organism-based; conditions: in vivo
[27] = Therapeutic index, ratio of ip dosed albino CF-1 mouse TD50 to ip dosed albino CF-1 mouse ED50 for MES assay; type: toxicity, organism-based; conditions: in vivo, read-out: TI
[28] = system: Rattus norvegicus; experiment: Anticonvulsant activity in Sprague-Dawley rat assessed as protection against maximal electroshock-induced seizures at 30 mg/kg, ip after 0.25 hrs; type: functional, organism-based
[29] = system: Rattus norvegicus; experiment: Anticonvulsant activity in Sprague-Dawley rat assessed as protection against maximal electroshock-induced seizures at 30 mg/kg, po after 4 hrs; type: functional, organism-based
[30] = system: Mus musculus; experiment: Neurotoxicity in albino CF-1 mouse assessed as increase in subcutaneous pentylenetetrazole-induced continuous seizures at 50 mg/kg, ip measured after 0.5 hrs; type: toxicity, organism-based; conditions: in vivo
[31] = molecular target: D(2) dopamine receptor (Homo sapiens) (UniProt P14416); experiment: Displacement of [3H]-spiperone from human dopamine D2 receptor expressed in CHO cell membranes at 1 uM relative to haloperidol
[32] = Therapeutic index, ratio of ip dosed albino CF-1 mouse TD50 to ip dosed albino CF-1 mouse ED50 for 32 mA current-induced 6 Hz psychomotor test; type: toxicity, organism-based; conditions: in vivo, read-out: TI
[33] = system: Mus musculus; experiment: Anticonvulsant activity in ip dosed albino CF-1 mouse assessed as protection against 32 mA current-induced seizure after 1 hr by 6 Hz psychomotor test; type: functional; conditions: CF-1, ip
[34] = molecular target: Muscarinic acetylcholine receptor M3 (Cavia porcellus) (UniProt Q8VH26); experiment: Agonist activity at muscarinic M3 receptor in guinea-pig ileum assessed as induction of contractions at 1 to 3 uM after 15 mins; type: functional
[35] = system: Mus musculus; experiment: Analgesic activity in ip dosed albino Swiss CD1 mouse assessed reduction in formalin-induced inflammatory pain by measuring reduction in time spent in licking pretreated prior to formalin injection measured at 15 to 30 mins post formalin injection; type: functional
[36] = molecular target: 5-hydroxytryptamine receptor 7 (Homo sapiens, UniProt P34969); experiment: Displacement of [3H]-5-carboxyamidotryptamine from human 5-HT7 receptor expressed in HEK293 cell membranes after 1 hr
5-hydroxytryptamine receptor 7, sequence (P34969 whole entry): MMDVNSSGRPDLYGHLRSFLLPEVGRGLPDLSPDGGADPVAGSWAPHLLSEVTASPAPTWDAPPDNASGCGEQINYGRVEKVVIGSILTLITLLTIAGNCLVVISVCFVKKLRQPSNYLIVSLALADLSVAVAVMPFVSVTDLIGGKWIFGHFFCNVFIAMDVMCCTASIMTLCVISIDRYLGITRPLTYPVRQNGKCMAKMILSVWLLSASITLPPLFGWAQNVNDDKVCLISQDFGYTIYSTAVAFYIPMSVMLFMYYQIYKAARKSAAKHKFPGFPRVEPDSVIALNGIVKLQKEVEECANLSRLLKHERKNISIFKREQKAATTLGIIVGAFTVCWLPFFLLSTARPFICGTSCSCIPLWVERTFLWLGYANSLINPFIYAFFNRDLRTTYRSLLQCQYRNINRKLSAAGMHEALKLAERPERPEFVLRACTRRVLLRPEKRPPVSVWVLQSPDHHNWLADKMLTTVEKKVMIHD

D(2) dopamine receptor (Homo sapiens), sequence (P14416 whole entry): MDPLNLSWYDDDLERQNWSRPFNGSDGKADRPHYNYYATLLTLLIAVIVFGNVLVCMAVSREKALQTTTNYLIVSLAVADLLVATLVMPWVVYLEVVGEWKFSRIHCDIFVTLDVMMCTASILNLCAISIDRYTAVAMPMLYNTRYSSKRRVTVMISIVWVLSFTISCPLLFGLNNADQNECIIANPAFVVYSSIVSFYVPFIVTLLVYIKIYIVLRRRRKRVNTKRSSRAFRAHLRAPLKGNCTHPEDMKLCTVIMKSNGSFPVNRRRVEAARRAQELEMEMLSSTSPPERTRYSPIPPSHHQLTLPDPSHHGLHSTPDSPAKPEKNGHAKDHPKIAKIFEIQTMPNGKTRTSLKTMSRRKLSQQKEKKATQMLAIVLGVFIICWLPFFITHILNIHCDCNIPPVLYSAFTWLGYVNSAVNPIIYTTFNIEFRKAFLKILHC
D(1A) dopamine receptor (Homo sapiens), sequence (P21728 whole entry): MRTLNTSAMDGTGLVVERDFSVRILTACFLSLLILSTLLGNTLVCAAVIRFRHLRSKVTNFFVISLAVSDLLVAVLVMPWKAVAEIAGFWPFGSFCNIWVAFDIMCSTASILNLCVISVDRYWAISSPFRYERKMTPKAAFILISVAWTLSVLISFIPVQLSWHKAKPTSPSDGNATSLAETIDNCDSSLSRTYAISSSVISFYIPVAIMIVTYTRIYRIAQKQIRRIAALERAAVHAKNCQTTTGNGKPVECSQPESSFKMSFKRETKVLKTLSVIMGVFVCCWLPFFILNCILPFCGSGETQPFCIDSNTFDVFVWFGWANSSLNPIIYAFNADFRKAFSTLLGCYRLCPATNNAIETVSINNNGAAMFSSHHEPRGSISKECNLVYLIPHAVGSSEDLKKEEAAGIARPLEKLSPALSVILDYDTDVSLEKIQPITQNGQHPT
Muscarinic acetylcholine receptor M3 (Cavia porcellus), sequence (Q8VH26 1-587): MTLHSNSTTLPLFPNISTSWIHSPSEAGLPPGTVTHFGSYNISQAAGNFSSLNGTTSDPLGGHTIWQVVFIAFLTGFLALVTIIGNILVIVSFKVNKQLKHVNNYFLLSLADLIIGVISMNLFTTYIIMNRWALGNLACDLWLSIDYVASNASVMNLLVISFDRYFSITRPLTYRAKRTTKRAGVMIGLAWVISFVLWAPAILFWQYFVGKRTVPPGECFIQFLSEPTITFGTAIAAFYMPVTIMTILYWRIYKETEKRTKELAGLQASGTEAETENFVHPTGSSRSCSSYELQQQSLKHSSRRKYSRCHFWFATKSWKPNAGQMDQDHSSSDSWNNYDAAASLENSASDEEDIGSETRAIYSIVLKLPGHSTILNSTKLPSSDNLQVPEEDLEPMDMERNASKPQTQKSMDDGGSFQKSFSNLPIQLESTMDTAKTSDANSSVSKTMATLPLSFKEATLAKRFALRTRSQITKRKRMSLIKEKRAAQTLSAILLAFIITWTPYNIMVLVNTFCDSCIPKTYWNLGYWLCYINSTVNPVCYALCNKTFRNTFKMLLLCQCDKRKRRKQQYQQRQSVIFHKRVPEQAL
Histamine H1 receptor (Cavia porcellus), sequence (P31389 whole entry): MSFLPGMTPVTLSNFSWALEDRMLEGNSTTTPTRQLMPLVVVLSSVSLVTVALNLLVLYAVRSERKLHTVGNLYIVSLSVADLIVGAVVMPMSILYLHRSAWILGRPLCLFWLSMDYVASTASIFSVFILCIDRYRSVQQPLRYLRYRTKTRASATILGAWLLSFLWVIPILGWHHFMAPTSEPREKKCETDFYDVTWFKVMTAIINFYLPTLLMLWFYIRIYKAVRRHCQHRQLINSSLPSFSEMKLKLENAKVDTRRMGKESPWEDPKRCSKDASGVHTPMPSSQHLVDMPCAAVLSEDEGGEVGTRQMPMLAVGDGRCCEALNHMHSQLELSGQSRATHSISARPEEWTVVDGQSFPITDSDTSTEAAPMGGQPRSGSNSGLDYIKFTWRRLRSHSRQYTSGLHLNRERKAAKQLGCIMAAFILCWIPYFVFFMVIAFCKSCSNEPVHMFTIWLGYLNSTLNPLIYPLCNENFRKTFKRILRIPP
CYP3A4, sequence (P08684 whole entry): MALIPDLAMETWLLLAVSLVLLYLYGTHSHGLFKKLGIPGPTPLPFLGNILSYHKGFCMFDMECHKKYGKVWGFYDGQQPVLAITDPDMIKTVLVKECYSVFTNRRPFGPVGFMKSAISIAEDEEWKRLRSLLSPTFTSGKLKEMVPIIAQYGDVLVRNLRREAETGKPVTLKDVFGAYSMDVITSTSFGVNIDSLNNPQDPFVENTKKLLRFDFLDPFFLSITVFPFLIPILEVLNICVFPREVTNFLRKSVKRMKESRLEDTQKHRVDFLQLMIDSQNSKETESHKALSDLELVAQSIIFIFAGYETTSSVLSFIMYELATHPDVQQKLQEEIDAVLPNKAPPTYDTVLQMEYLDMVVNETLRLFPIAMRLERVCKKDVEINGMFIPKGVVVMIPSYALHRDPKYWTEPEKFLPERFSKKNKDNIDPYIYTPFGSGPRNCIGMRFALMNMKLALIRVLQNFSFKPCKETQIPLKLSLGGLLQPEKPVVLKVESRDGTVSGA

## c1ccc2c(OCCCCCN3CCCCC3)cccc2c1
[1]
  Activity: Non-Toxic
[2]
  Activity: Non-Toxic
[3]
  Activity: inactive
[4]
  Activity: Active
[5]
  ED50: > 100 mg/kg
[6]
  Activity: inactive
[7]
  ED50: 78.1 mg/kg
[8]
  ED50: 11.43 mg/kg
[9]
  pIC50: < 4.30
[10]
  Activity: inactive
[11]
  Activity: inactive
[12]
  Activity: inactive
[13]
  inhibition at 25 µM: 50%
[14]
  pIC50: < 4.30
[15]
  Activity: Non-Toxic
[16]
  ED50: 31.1 mg/kg
[17]
  Activity: Non-Toxic
[18]
  Activity: Active
[19]
  ED50: 2.37 mg/kg
[20]
  Activity: Non-Toxic
[21]
  TD50 at 0.25 h: > 500 mg/kg
[22]
  Activity: Active
[23]
  Activity: Non-Toxic
[24]
  inhibition: 6.7%
[25]
  Activity: inactive
[26]
  Activity: Non-Toxic
[27]
  selectivity ratio: 4.9
[28]
  Activity: Active
[29]
  Activity: inactive
[30]
  Activity: Non-Toxic
[31]
  inhibition: 2%
[32]
  selectivity ratio: 2.9
[33]
  ED50: 33.1 mg/kg
[34]
  Activity: inactive
[35]
  ED50: 30 mg/kg
[36]
  pKi: 5.64

From ChEMBL document CHEMBL4118139, “Novel naphthyloxy derivatives - Potent histamine H3 receptor ligands. Synthesis and pharmacological evaluation” (Bioorg Med Chem, 2018)
